One assay concerns S. aureus (SA38). In words: Minimum inhibitory concentration (MIC) assay against S. aureus. Type of assay: cell-based, Staphylococcus aureus. Here is the method:
(§1) The antimicrobial activity of the compounds was evaluated by MIC assay using the procedure described by Clinical and Laboratory Standards Institute (CLSI). A single colony of bacteria was cultured overnight in trypticase soy broth (TSB; Oxoid, Basingstoke, UK) at 37 °C with shaking. The resulting bacterial culture was collected by centrifugation and resuspended in TSB twice. The optical density (OD) of the resulting culture was adjusted to OD660 = 0.1 in TSB (which is equivalent to 10^8 colony forming unit (CFU)/mL bacteria). It was further diluted to 10^6 CFU/mL in TSB. 100 µL of the bacterial solution was then added to wells of a 96-well plate (Costar; Sigma-Aldrich, St Louis, MO, USA) containing 100 µL serially diluted peptide mimic, with final concentration ranging from 1 to 250 µM. Wells with bacteria but no compound were used as negative control while wells with only media were set as blank. The plates were then wrapped with parafilm to prevent evaporation and incubated with shaking at 120 rpm at 37 °C for 18–24 h, and the data were recorded by measuring the OD value at 660 nm using a FLUOstar Omega (BMG Labtech, Mornington, Victoria, Australia) microplate reader. […] Each experiment was performed in triplicate and was repeated in three independent experiments.

Assay [1] has as its system MRC-5 normal human lung fibroblasts. The assay is described as follows: MTT toxicity assay. Type of assay: cell-based. Conditions: 72 h drug incubation, read-out: IC50 against MRC-5 normal human lung fibroblasts. How it is done:
The toxicity of the compounds was measured using an MTT (3-(4,5-dimethylthiazol-2-yl)-2,5-diphenyltetrazolium bromide) (Sigma Aldrich, St Louis, MO, USA) colorimetric assay against normal human lung fibroblasts MRC-5 cells. The cells were cultured in minimal essential medium (MEM; Sigma Aldrich, St Louis, MO, USA) containing 10% foetal bovine serum (FBS). The cells were maintained at 37 °C in 5% CO2 as an adherent monolayer and was passaged upon reaching confluence by standard cell culture techniques. MRC-5 cells were seeded at 5000 cells/well in 96-well plates to ensure full confluence (quiescence) and left overnight to adhere to the plate wells. The adherent cells were treated with 1–500 µM of compounds by dissolving in DMSO and serially diluting with media. The final concentration of DMSO was 0.5% (v/v). After 72 h drug incubation, […] stock MTT solution (5 mg/mL) was added and the cells were incubated for another 3.5–4 h. MTT solution-containing media was carefully aspirated without displacing the purple crystals from the bottom and […] acid-isopropanol was added to all wells and mixed slowly by shaking with an orbital shaker to dissolve the dark blue crystals. The metabolic activity was detected by spectrophotometric analysis by assessing the read absorbance (590/620 nm) on an EnSight plate reader (PerkinElmer, Waltham, MA, USA) and cell viability was expressed as a percentage of untreated control cells. The determination of IC50 values was performed using GraphPad Prism 6 (GraphPad, San Diego, CA, USA). Each experiment was performed in triplicate and was repeated in three independent experiments.

In another assay the test system is P. aeruginosa (PA01). The assay is described as follows: Minimum inhibitory concentration (MIC) assay against P. aeruginosa. Type of assay: cell-based. The note with it: Pseudomonas aeruginosa. How it is done:
as §1

For another assay, the system named is E. coli (K12). The assay is described as follows: Minimum inhibitory concentration (MIC) assay against E. coli. Type of assay: cell-based. The note with it: Escherichia coli. How it is done:
as §1

Assay [2] deals with established S. aureus biofilms. The assay is described as follows: Biofilm disruption assay (crystal violet staining), S. aureus. Type of assay: cell-based, Staphylococcus aureus. The note with it: any tested concentration (1×, 2× and 4× MIC), 24 h treatment. How it is done: Bacterial cultures (S. aureus and E. coli) were grown in Muller Hinton broth (MHB; Oxoid, Basingstoke, UK) media overnight at 37 °C with shaking at 120 rpm. Cultures were diluted (1:20) in MHB medium and 200 µL aliquots were dispensed to wells in a flat bottom 96-well plate (Costar; Sigma-Aldrich, St Louis, MO, USA). Biofilm was then grown in the 96-well plate at 37 °C overnight. After that, loosely bound cells were washed away with 1x phosphate-buffered saline (PBS) and cultures were then supplemented with different concentrations of test compounds dissolved in DMSO and incubated for a further 24 h with shaking at 120 rpm. Biofilms adhered on the plate substratum were quantified using crystal violet staining as described previously. The experiment was performed in triplicate.

19 compounds from publication PMC7555970, “Design, Synthesis and Biological Evaluation of Biphenylglyoxamide-Based Small Molecular Antimicrobial Peptide Mimics as Antibacterial Agents” (International Journal of Molecular Sciences, 2020) can be followed below.

≈ marks a conversion by molar mass, not a printed value. Where two headings read alike, the source gives them in different places.

As to `CCCCCCCCS(=O)(=O)Nc1ccc(-c2ccccc2)cc1C(=O)C(=O)NCCCN(C)C` [Compound 11a, N-(3-(Dimethylamino)propyl)-2-(4-(octylsulfonamido)-[1,1’-biphenyl]-3-yl)-2-oxoacetamide], in the assay with S. aureus (SA38), the MIC worked out at 24 µM (≈ 12 µg/mL). For the same compound, the half-inhibitory concentration (IC50) in assay [1] is 28.2 µM; in assay [1] (Homo sapiens, MRC5, 72 h), below 30 µM.
Consider `CCCCCCCCS(=O)(=O)Nc1ccc(-c2ccc(F)cc2)cc1C(=O)C(=O)NCCCN(C)C` [Compound 11b, N-(3-(Dimethylamino)propyl)-2-(4’-fluoro-4-(octylsulfonamido)-[1,1’-biphenyl]-3-yl)-2-oxoacetamide], for which, in the assay with S. aureus (SA38), the MIC is given as 16 µM (≈ 8.31 µg/mL).
Still for that read-out and setting: with `CCCCCCCCS(=O)(=O)Nc1ccc(-c2ccc(Cl)cc2)cc1C(=O)C(=O)NCCCN(C)C` [Compound 11c, 2-(4’-Chloro-4-(octylsulfonamido)-[1,1’-biphenyl]-3-yl)-N-(3-(dimethylamino)propyl)-2-oxoacetamide] the figure was 16 µM (≈ 8.58 µg/mL).
The compound `CCCCCCCCS(=O)(=O)Nc1ccc(-c2ccc3ccccc3c2)cc1C(=O)C(=O)NCCCN(C)C` [Compound 11d, N-(3-(Dimethylamino)propyl)-2-(5-(naphthalen-2-yl)-2-(octylsulfonamido)phenyl)-2-oxoacetamide] gave an MIC against S. aureus (SA38) of 16 µM (≈ 8.83 µg/mL).
Still for that read-out and setting: with `CCCCCCCCS(=O)(=O)Nc1ccc(CCCC)cc1C(=O)C(=O)NCCCN(C)C` [Compound 11e, 2-(5-Butyl-2-(octylsulfonamido)phenyl)-N-(3-(dimethylamino)propyl)-2-oxoacetamide] the figure was 63 µM (≈ 30.3 µg/mL).
Regarding `CCCCS(=O)(=O)Nc1ccc(-c2ccccc2)cc1C(=O)C(=O)NCCCN(C)C` [Compound 12a, 2-(4-(Butylsulfonamido)-[1,1’-biphenyl]-3-yl)-N-(3-(dimethylamino)propyl)-2-oxoacetamide], the MIC against S. aureus (SA38) (Staphylococcus aureus) is above 250 µM.
As to `CCCCCCCCS(=O)(=O)Nc1ccc(-c2ccccc2)cc1C(=O)C(=O)NCCCN(C)C` [Compound 13a, N,N-Dimethyl-3-(2-(4-(octylsulfonamido)-[1,1’-biphenyl]-3-yl)-2-oxoacetamido)propan-1-aminium chloride], the minimum inhibitory concentration (MIC) in the assay on S. aureus (SA38) (Staphylococcus aureus) is 16 µM. Besides, the IC50 in assay [1] came out at 25 µM.
Consider `CCCCCCCCS(=O)(=O)Nc1ccc(-c2ccc(F)cc2)cc1C(=O)C(=O)NCCCN(C)C` [Compound 13b, 3-(2-(4’-Fluoro-4-(octylsulfonamido)-[1,1’-biphenyl]-3-yl)-2-oxoacetamido)-N,N-dimethylpropan-1-aminium chloride], for which, in the assay on S. aureus (SA38) (Staphylococcus aureus), the minimal inhibitory concentration (MIC) was determined as 16 µM.
On to `CCCCCCCCS(=O)(=O)Nc1ccc(-c2ccc(Cl)cc2)cc1C(=O)C(=O)NCCCN(C)C` [Compound 13c, 3-(2-(4’-Chloro-4-(octylsulfonamido)-[1,1’-biphenyl]-3-yl)-2-oxoacetamido)-N,N-dimethylpropan-1-aminium chloride], for which 16 µM was the least that counted as inhibitory against S. aureus (SA38) (Staphylococcus aureus) (MIC). In assay [1] (Homo sapiens, MRC5, 72 h), the IC50 was 25.5 µM.
As to `CCCCCCCCS(=O)(=O)Nc1ccc(-c2ccc3ccccc3c2)cc1C(=O)C(=O)NCCCN(C)C` [Compound 13d, N,N-Dimethyl-3-(2-(5-(naphthalen-2-yl)-2-(octylsulfonamido)phenyl)-2-oxoacetamido)propan-1-aminium chloride], the minimum inhibitory concentration (MIC) against S. aureus (SA38) (Staphylococcus aureus) turned out to be 8 µM. The IC50 in assay [1] was found to be 19.7 µM.
`CCCCCCCCS(=O)(=O)Nc1ccc(CCCC)cc1C(=O)C(=O)NCCCN(C)C` [Compound 13e, 3-(2-(5-Butyl-2-(octylsulfonamido)phenyl)-2-oxoacetamido)-N,N-dimethylpropan-1-aminium chloride] yielded an MIC with S. aureus (SA38) (Staphylococcus aureus) of 32 µM. The IC50 in assay [1] (Homo sapiens, MRC5, 72 h) is 23.6 µM.
In the assay with S. aureus (SA38), `CCCCS(=O)(=O)Nc1ccc(-c2ccccc2)cc1C(=O)C(=O)NCCCN(C)C.Cl` [Compound 14a, 3-(2-(4-(Butylsulfonamido)-[1,1’-biphenyl]-3-yl)-2-oxoacetamido)-N,N-dimethylpropan-1-aminium chloride] registered an MIC above 250 µM.
For `CCCCCCCCS(=O)(=O)Nc1ccc(-c2ccccc2)cc1C(=O)C(=O)NCCC[N+](C)(C)C` [Compound 15a, N,N,N-Trimethyl-3-(2-(4-(octylsulfonamido)-[1,1’-biphenyl]-3-yl)-2-oxoacetamido)propan-1-aminium iodide], the MIC in the assay with S. aureus (SA38) (Staphylococcus aureus) was determined as 16 µM; against P. aeruginosa (PA01), 125 µM; with E. coli (K12), 32 µM. The IC50 in assay [1] (Homo sapiens, MRC5, 72 h) stood at 50.7 µM.
Taken in the same sequence, the figures for `CCCCCCCCS(=O)(=O)Nc1ccc(-c2ccc(F)cc2)cc1C(=O)C(=O)NCCC[N+](C)(C)C` [Compound 15b, 3-(2-(4’-Fluoro-4-(octylsulfonamido)-[1,1’-biphenyl]-3-yl)-2-oxoacetamido)-N,N,N-trimethylpropan-1-aminium iodide] were 16 µM, 63 µM, 32 µM and 190 µM.
With `CCCCCCCCS(=O)(=O)Nc1ccc(CCCC)cc1C(=O)C(=O)NCCC[N+](C)(C)C` [Compound 15e, 3-(2-(5-Butyl-2-(octylsulfonamido)phenyl)-2-oxoacetamido)-N,N,N-trimethylpropan-1-aminium iodide], the results for the minimal inhibitory concentration (MIC) against S. aureus (SA38) (Staphylococcus aureus), in the assay with P. aeruginosa (PA01) and in the assay with E. coli (K12) were 16 µM, above 250 µM and above 250 µM, respectively. Further, in assay [1] (Homo sapiens, MRC5, 72 h), the 50% inhibitory concentration (IC50) was determined as 101 µM.
`CCCCS(=O)(=O)Nc1ccc(-c2ccccc2)cc1C(=O)C(=O)NCCC[N+](C)(C)C` [Compound 16a, 3-(2-(4-(Butylsulfonamido)-[1,1’-biphenyl]-3-yl)-2-oxoacetamido)-N,N,N-trimethylpropan-1-aminium iodide] yielded a minimum inhibitory concentration (MIC) with S. aureus (SA38) (Staphylococcus aureus) above 250 µM.
`CCCCCCCCS(=O)(=O)Nc1ccc(-c2ccc(Cl)cc2)cc1C(=O)C(=O)NCCCNC(=N)N.Cl` [Compound 22c, 2-(4’-Chloro-4-(octylsulfonamido)-[1,1’-biphenyl]-3-yl)-N-(3-guanidinopropyl)-2-oxoacetamide hydrochloride]: the minimum inhibitory concentration (MIC) came to 8 µM against S. aureus (SA38) (Staphylococcus aureus), 250 µM against P. aeruginosa (PA01) and 63 µM against E. coli (K12). The “disruption of preformed S. aureus biofilms” value in assay [2] is given as “failed to disrupt any”. For the same compound, the concentration for half-maximal inhibition (IC50) in assay [1] (Homo sapiens, MRC5, 72 h) came to 95 µM.
`CN(C)CCCNC(=O)C(=O)c1cc(-c2ccccc2)ccc1NC(=O)c1ccc2ccccc2c1.Cl` [Compound 26, 3-(2-(4-(2-Naphthamido)-[1,1’-biphenyl]-3-yl)-2-oxoacetamido)-N,N-dimethylpropan-1-aminium chloride] yielded a minimum inhibitory concentration (MIC) against S. aureus (SA38) above 250 µM.
The compound `C[N+](C)(C)CCCNC(=O)C(=O)c1cc(-c2ccccc2)ccc1NC(=O)c1ccc2ccccc2c1` [Compound 27, 3-(2-(4-(2-Naphthamido)-[1,1’-biphenyl]-3-yl)-2-oxoacetamido)-N,N,N-trimethylpropan-1-aminium iodide] gave an MIC with S. aureus (SA38) (Staphylococcus aureus) of 32 µM.
